One data set concerns the target T1, PSMA (Homo sapiens, UniProt Q04609).
T1 construct: host or cells: C4-2 cells (subline of LNCaP)
As to the kind of experiment: Competitive cell binding assay on C4-2 cells vs ^68Ga-PSMA-10. The settings on record: non-labeled compounds, radioligand ^68Ga-PSMA-10 0.75 nM, 37°C 45 min, mean ± SD (n = 3). How it is done: The competition binding assay was performed using the cell line C4-2 (ATCC® CRL-3314™; American Type Culture Collection). This is a subline of the PSMA-positive cell line LNCaP. The cells were cultivated in RPMI 1640 medium (PAN-Biotech), supplemented with 10% fetal bovine serum and 2 mM L-glutamine (PAN-Biotech) at 37°C and 5% CO2 in a humidified atmosphere.
A 96-well MultiScreenHTS-DV filter plate (Merck Millipore) was incubated at room temperature with 100 µL of a 1% bovine serum albumin (BSA) solution in PBS (phosphate-buffered saline) per well for 30 min. After removal of PBS/BSA solution, 1 × 10^5 C4-2 cells in 50 µL of Opti-MEM medium (Gibco, Life Technologies) were seeded into each well. […] All non-labeled compounds were dissolved in Opti-MEM and added as competing ligands at several concentrations: 0, 0.5, 1, 2.5, 5, 10, 25, 50, 100, 500, 1,000, and 5,000 nM. After incubation at 37°C for 45 min, the cells were washed twice with PBS at 4°C. The radioactivity in the supernatant and that accumulated by the cells was determined with a γ-counter (Packard Cobra Auto-gamma). Using Graph Pad Prism 5.01 software, a nonlinear regression algorithm was calculated to obtain the 50% inhibitory concentration (IC50). These experiments were performed in quadruplicate.

The test system of the next data set is C4-2 cells. As to the kind of experiment: Internalization efficiency / specific cell uptake in C4-2 cells. Format: cell-based, human. The settings on record: for Specific cell surface / Specific lysate (internalization): ^68Ga-labeled compounds 30 nM, 45 min, 37°C, specificity by 2-PMPA 500 μM, mean ± SD (n = 3). How it is done:
The specific internalization ratio was determinated in 24-well plates. The plates were previously coated with 0.1% poly-L-lysine in PBS for 20 min and washed with PBS once. C4-2 cells (10^5 cells per analysis) were added to each well and equilibrated overnight. The cells were incubated for 45 min with 250 µL of a 30 nM solution of the ^68Ga-labeled compounds either in a water bath at 37°C or on ice. The PSMA-receptor-blocking agent 2-(phosphonomethyl)pentanedioic acid (2-PMPA; 500 μM; Axxora) was used to verify the specificity of the cellular uptake of the novel compounds. The cells were washed thrice (using 1 ml of ice-cold PBS), followed by an incubation with 0.5 ml of a glycine solution (50 mM in HCl at a pH of 2.8) for 5 min, washed once with 1 ml of ice-cold PBS, and finally lysed with 0.5 ml of 0.3 M NaOH. The lysate was collected, and the radioactivity was measured in a gamma-counter. Triplicate measurements were performed for all experiments.

The nature of data set [1]: Determination of plasma half-life in athymic nude mice. Format: in vivo, mouse. As to conditions: athymic nude mice (n = 3), i.v. 4–6 MBq, biexponential fit, weighted overall half-life. On the procedure:
The radioligands ^68Ga-CA027 and ^68Ga-CA028 (4–6 MBq) were injected into athymic nude mice (n = 3) via the lateral tail vein. Blood (25–50 μL) was collected 2, 5, 15, 30, 45, 60, 90, and 120 min post injection via either the tail or saphenous vein, and the activity of the blood samples was determined in a γ-counter. Both procedures furnished consistent and reproducible results. The percentage of the injected dose per gram of tissue (%ID/g) was calculated, and the resulting values were plotted as a function of time. A biexponential decay curve was used as a fit function, accounting for a short blood half-life (a-phase) during the initial phase directly after injection and a longer blood half-life during the terminal phase (b-phase). The data analysis program Prism 7™ was used to determine both half-lives, t1/2-a and t1/2-b, as well as their relative contribution (in %) to the overall half-life (t1/2). Subsequently, both half-lives were weighed according to their relative contribution to the overall blood half-life t1/2. At the time of tracer injection (t = 0), it was assumed that %ID/g = 50. The injected dose at t = 0 equals 100%, divided by the total mass of blood (approximately 2 g in the case of 6‒8 weeks old mice) gives %ID/g t=0 = 50.

Data set [2] is described as follows: Serum stability (radio-HPLC and radio-ITLC). Format: in vitro ADME. The settings on record: ^177Lu-labeled; for release of ^177Lu in human serum: radio-ITLC. On the procedure:
After radiolabeling of the compounds, serum stability was examined by HPLC and ITLC (instant thin-layer chromatography). 50 µL (20 MBq) of the ^177Lu-labeled ligands was added to 200 µL human serum (Sigma-Aldrich) and incubated at 37°C. At different time points (0, 2, 24, 48, and 72 h) 0.5 µL was applied onto iTLC-SG-glass microfiber chromatography paper strips (5 × 0.5 cm; Agilent Technologies) at a distance of 1 cm from the bottom. The strip was placed upright into a vial containing 120 µL of sodium citrate buffer (0.5 M, pH = 5.0). The buffer front was allowed to rise to the top. Subsequently, each strip was cut in eight equally sized pieces that were subsequently measured in a gamma-counter. For HPLC analysis, an equal volume of ACN was added to the samples; under these conditions, the serum proteins precipitated. The samples were centrifuged for 10 min at 12,000 × g. Following the separation of the pellet and the supernatant, their relative activity (%) was determined. An aliquot of the supernatant was analyzed by radio-HPLC (0–100% ACN in 5 min, Monolith column, Merck), with a flow rate of 2 mL/min.

A further data set has as its system C4-2 tumor-bearing mice. As to the kind of experiment: In vivo metabolite analysis by radio-HPLC of tissue extracts. Set-up: species or system mouse. The settings on record: extracts from kidney, blood, liver and tumor of C4-2 tumor-bearing mice, 10 MBq, 0.2 nmol i.v. On the procedure:
The metabolization of the radiolabeled tracers in vivo was studied by radio-HPLC analysis. Male nude C4-2 tumor-bearing mice (n = 3) were injected with ^177Lu-CA028 or ^177Lu-PSMA-617 (10 MBq, 0.2 nmol in approximately 100 µL of 0.9% saline) via the tail vein. Ten min post injection, blood, the liver, and the kidneys were dissected. The tissues were rinsed with ice-cold saline, blotted dry, treated with 2 mL of 0.1 M NH4OAc/EtOH (35:65), and homogenized with an Ultra-Turrax T8 (IKA Labortechnik). The samples were then centrifuged for 10 min at 12,000 × g and 4°C. For HPLC measurements, an aliquot of the supernatants was prepared by precipitation of the proteins with ACN as described above for serum stability testing. The samples were analyzed by radio-HPLC (0–100% ACN in 5 min, 2 mL/min, Monolith column, Merck). The fractions were collected every 10 s over the whole course of the chromatographic run. Subsequently, the activity of the samples was measured in a gamma-counter to reconstruct a chromatogram.

The record followed here is publication PMC9396645 (Frontiers in Chemistry, 2022).

T1 sequence (Q04609 whole entry): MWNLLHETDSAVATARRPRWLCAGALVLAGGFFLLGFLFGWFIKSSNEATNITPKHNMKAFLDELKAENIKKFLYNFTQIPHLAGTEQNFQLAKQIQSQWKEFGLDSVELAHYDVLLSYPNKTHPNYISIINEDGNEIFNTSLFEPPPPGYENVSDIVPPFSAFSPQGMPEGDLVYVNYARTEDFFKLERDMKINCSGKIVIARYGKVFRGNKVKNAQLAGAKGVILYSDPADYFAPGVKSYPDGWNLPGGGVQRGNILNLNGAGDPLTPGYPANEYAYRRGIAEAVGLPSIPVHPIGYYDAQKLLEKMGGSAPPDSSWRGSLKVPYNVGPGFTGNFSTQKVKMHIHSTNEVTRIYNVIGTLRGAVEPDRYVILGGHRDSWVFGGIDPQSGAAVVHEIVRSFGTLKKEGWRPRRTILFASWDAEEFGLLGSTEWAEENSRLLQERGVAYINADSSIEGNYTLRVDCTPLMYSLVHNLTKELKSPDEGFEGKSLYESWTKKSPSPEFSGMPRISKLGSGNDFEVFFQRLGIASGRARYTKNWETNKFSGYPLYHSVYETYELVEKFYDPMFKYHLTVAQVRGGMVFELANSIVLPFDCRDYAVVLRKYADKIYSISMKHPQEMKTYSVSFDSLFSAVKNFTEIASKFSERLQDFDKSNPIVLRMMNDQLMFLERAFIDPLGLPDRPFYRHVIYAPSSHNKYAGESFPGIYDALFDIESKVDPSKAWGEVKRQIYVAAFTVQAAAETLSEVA

As a reminder, the Ki is the dissociation constant of the complex between target and ligand, obtained from inhibition or displacement. Lower therefore signals higher affinity. `O=C(O)CCC(NC(=O)NC(CCCCNC(=O)c1ccc(CN2CCN(CC(=O)O)CCN(CC(=O)O)CCN(CC(=O)O)CC2)cc1)C(=O)O)C(=O)O` (stereo not drawn) [CA027] had a Ki on PSMA of 33.8 ± 2.13 nM. Further, in the data set with C4-2 cells, the Specific cell surface amounted to 2.18 ± 0.50 %IA/10^6cells and the “Specific lysate (internalization)” value turned out to be 1.70 ± 0.24 %IA/10^6 cells.
The corresponding values for `O=C(O)CCC(NC(=O)NC(CCCCNC(=O)C(Cc1ccc2ccccc2c1)NC(=O)C1CCC(CNC(=O)c2ccc(CN3CCN(CC(=O)O)CCN(CC(=O)O)CCN(CC(=O)O)CC3)cc2)CC1)C(=O)O)C(=O)O` (stereo not drawn) [CA028] are 15.2 ± 6.11 nM, 94.12 ± 2.70 %IA/10^6cells and 41.22 ± 2.72 %IA/10^6 cells.
The corresponding values for `O=C(O)CCC(NC(=O)NC(CCCCNC(=O)C(Cc1ccc2ccccc2c1)NC(=O)C1CCC(CNC(=S)Nc2ccc(CNC(=O)CCC(C(=O)O)N3CCN(CC(=O)O)CCN(CC(=O)O)CCN(CC(=O)O)CC3)cc2)CC1)C(=O)O)C(=O)O` (stereo not drawn) [CA029] are 11 ± 4.87 nM, 46.83 ± 3.07 %IA/10^6cells and 44.26 ± 3.96 %IA/10^6 cells.
In turn, `O=C(O)CCC(NC(=O)NC(CCCCNC(=O)C(Cc1ccc2ccccc2c1)NC(=O)C1CCC(CNC(=S)Nc2ccc(CC3CN(CC(=O)O)CCN(CC(=O)O)CCN(CC(=O)O)CCN3CC(=O)O)cc2)CC1)C(=O)O)C(=O)O` (stereo not drawn) [CA030] returned a Ki on PSMA of 4.79 ± 1.31 nM. Moreover, the “specific internalization in C4-2 cells” value in the data set with C4-2 cells (Table 2) stood at 53.78 % ID/10^6 cells. Besides, in the data set with C4-2 cells, the Specific cell surface worked out at 43.46 ± 1.50 %IA/10^6cells and the “Specific lysate (internalization)” value was 53.78 ± 5.45 %IA/10^6 cells.
As for `O=C([O-])CN1CCN(CC(=O)[O-])CCN(Cc2ccc(C(=O)NCCCCC(NC(=O)NC(CCC(=O)O)C(=O)O)C(=O)O)cc2)CCN(CC(=O)[O-])CC1.[68Ga+3]` (stereo not drawn) [^68Ga-CA027], in data set [1], the “plasma half-life t1/2” value came to 2.7 min.
With `O=C([O-])CN1CCN(CC(=O)[O-])CCN(Cc2ccc(C(=O)NCC3CCC(C(=O)NC(Cc4ccc5ccccc5c4)C(=O)NCCCCC(NC(=O)NC(CCC(=O)O)C(=O)O)C(=O)O)CC3)cc2)CCN(CC(=O)[O-])CC1.[177Lu+3]` (stereo not drawn) [^177Lu-CA028], in data set [2] (37°C, 'at this time point'), the “free activity in human serum” value is given as 40%. The “metabolization in vivo (radio-HPLC of extracts)” value in the data set on C4-2 tumor-bearing mice is “activity elutes at the retention time of the intact tracer”.
Regarding `O=C([O-])CN1CCN(CC(=O)[O-])CCN(C(CCC(=O)NCc2ccc(NC(=S)NCC3CCC(C(=O)NC(Cc4ccc5ccccc5c4)C(=O)NCCCCC(NC(=O)NC(CCC(=O)O)C(=O)O)C(=O)O)CC3)cc2)C(=O)O)CCN(CC(=O)[O-])CC1.[177Lu+3]` (stereo not drawn) [^177Lu-CA029], in data set [2] (37°C), the “release of ^177Lu in human serum” value is recorded as “no release”.
In the case of `O=C([O-])CN1CCN(CC(=O)[O-])CCN(CC(=O)O)C(Cc2ccc(NC(=S)NCC3CCC(C(=O)NC(Cc4ccc5ccccc5c4)C(=O)NCCCCC(NC(=O)NC(CCC(=O)O)C(=O)O)C(=O)O)CC3)cc2)CN(CC(=O)[O-])CC1.[177Lu+3]` (stereo not drawn) [^177Lu-CA030], in data set [2] (37°C), the “release of ^177Lu in human serum” value was “no release”. Further, in data set [2] (over 72 h), the “stability in human serum” value was “stable”.
`O=C([O-])CN1CCN(CC(=O)[O-])CCN(CC(=O)NCC2CCC(C(=O)N[C@@H](Cc3ccc4ccccc4c3)C(=O)NCCCC[C@H](NC(=O)N[C@@H](CCC(=O)O)C(=O)O)C(=O)O)CC2)CCN(CC(=O)[O-])CC1.[177Lu+3]` (stereo partly drawn) [^177Lu-PSMA-617, reference compound]: the “release of ^177Lu in human serum” value in data set [2] (37°C) is recorded as “no release”. Moreover, the “metabolization in vivo (radio-HPLC of extracts)” value in the data set with C4-2 tumor-bearing mice is “activity elutes at the retention time of the intact tracer”.
